Data reported in ChEMBL document CHEMBL1201862, “PubChem BioAssay data set” (2004).
Activity calls are given as the source filed them.

Tests used:
[1] = target: T1, Heat shock factor protein 1 (Mus musculus, UniProt P38532); experiment: decrease of HSF1-responsive luciferase luminescence – cell-based, NIH3T3, dose retest, confirmation (AID 2382); assay type: functional;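 note: NIH3T3 fibroblasts with HSF1-driven luciferase reporter stressed by proteasome inhibitor MG132; luminescence from HSF1-driven luciferase expression after 8 hours of MG132 stress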
T1 sequence (P38532 whole entry): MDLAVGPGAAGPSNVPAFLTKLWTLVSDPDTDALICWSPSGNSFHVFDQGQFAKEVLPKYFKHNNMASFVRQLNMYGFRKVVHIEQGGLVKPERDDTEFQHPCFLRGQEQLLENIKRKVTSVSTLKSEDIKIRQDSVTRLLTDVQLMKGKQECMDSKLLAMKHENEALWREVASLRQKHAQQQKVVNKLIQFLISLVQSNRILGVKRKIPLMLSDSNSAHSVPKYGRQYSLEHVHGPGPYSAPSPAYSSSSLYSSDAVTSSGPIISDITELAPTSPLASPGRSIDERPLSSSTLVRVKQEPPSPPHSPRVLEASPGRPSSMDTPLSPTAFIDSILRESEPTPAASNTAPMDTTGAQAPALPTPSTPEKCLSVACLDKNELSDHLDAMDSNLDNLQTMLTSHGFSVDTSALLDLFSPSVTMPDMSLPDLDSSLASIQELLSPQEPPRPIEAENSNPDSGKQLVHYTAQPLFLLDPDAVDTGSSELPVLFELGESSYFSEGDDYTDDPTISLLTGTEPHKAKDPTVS

INS1 = experiment: INS-1E survival protection against cytokine death – cell-based, luminescence, retest, dose response (AID 449756); assay type: functional; details: Rattus norvegicus;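 note: cell death triggered by IL-1 beta plus TNF-alpha plus IFN-gamma mixture; protective hits raise ATP signal compared with cytokine alone wells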
Cytochrome P450 1A2 = target: T2, Cytochrome P450 1A2 (Homo sapiens, UniProt P05177);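 note: PubChem cytochrome P450 panel assay, CYP1A2 panel member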
T2 sequence (P05177 whole entry): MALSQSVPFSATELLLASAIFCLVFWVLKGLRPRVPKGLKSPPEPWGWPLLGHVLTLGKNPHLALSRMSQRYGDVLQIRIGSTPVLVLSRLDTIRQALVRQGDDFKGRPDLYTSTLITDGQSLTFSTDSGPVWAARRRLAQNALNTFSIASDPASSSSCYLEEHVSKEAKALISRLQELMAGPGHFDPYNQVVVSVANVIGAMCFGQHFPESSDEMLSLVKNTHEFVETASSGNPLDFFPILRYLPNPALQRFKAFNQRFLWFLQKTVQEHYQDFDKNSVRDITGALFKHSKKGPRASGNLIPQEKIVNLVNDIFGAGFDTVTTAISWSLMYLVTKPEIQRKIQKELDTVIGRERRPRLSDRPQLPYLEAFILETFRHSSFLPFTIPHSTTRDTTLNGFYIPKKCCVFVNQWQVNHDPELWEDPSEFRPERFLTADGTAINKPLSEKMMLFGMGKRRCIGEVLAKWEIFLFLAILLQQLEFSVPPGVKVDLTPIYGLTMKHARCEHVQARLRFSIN

Cytochrome P450 2C19 = Cytochrome P450 2C19 (Homo sapiens, UniProt P33261); experiment: Cytochrome panel assay with activity outcomes. Panel member name: p450-cyp2c19 Compounds with AC50 equal or less than 10 uM are considered active; assay type: functional
Chain of Cytochrome P450 2C19 (P33261 whole entry): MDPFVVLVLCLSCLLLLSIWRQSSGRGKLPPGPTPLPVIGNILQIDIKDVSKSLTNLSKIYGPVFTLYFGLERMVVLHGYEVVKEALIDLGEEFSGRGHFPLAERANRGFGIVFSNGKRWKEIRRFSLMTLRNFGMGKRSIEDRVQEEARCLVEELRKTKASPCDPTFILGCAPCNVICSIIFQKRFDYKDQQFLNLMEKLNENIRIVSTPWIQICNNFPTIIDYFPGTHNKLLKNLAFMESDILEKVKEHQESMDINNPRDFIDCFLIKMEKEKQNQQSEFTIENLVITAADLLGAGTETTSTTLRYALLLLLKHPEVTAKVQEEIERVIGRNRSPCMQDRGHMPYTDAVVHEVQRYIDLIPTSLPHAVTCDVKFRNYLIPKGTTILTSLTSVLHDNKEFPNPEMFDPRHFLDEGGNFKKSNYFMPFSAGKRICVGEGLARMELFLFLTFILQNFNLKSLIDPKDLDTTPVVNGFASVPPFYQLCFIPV

Protein RecA = target: T3, Protein RecA (Mycobacterium tuberculosis, UniProt P9WHJ3); experiment: Fluorescence Cell-Free Homogeneous Dose Retest to Identify Inhibitors of RecA-Intein Splicing Activity. [Related pubchem assays (depositor defined):AID2097, AID2223, AID489010, AID492950]; assay type: functional
T3 sequence (P9WHJ3 whole entry): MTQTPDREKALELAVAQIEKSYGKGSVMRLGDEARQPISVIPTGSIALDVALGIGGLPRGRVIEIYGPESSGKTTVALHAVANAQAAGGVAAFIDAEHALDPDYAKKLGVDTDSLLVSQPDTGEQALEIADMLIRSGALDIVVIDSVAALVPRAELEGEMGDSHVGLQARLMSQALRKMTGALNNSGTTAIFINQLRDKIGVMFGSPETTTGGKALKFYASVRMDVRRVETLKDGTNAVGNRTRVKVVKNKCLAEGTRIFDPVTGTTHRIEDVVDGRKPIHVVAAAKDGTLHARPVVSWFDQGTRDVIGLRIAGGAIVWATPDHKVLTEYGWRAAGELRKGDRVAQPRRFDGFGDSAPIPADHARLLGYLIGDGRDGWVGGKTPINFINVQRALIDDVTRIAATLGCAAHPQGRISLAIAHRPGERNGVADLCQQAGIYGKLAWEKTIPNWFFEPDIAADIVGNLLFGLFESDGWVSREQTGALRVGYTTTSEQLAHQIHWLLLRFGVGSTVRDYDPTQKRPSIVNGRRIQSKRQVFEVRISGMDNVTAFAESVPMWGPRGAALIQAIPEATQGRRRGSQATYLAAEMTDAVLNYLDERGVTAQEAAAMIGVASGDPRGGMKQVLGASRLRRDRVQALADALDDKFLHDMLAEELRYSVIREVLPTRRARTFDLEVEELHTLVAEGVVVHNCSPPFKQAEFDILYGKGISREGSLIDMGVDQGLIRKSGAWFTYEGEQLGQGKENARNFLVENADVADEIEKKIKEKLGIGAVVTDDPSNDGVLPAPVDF

[2] = target: T4, Replicative DNA helicase DnaB (Mycobacterium tuberculosis, UniProt P9WMR3); experiment: DnaB intein splicing inhibitors, dose response, biochemical, cell-free fluorescence (AID 449749); assay type: functional
T4 sequence (P9WMR3 whole entry): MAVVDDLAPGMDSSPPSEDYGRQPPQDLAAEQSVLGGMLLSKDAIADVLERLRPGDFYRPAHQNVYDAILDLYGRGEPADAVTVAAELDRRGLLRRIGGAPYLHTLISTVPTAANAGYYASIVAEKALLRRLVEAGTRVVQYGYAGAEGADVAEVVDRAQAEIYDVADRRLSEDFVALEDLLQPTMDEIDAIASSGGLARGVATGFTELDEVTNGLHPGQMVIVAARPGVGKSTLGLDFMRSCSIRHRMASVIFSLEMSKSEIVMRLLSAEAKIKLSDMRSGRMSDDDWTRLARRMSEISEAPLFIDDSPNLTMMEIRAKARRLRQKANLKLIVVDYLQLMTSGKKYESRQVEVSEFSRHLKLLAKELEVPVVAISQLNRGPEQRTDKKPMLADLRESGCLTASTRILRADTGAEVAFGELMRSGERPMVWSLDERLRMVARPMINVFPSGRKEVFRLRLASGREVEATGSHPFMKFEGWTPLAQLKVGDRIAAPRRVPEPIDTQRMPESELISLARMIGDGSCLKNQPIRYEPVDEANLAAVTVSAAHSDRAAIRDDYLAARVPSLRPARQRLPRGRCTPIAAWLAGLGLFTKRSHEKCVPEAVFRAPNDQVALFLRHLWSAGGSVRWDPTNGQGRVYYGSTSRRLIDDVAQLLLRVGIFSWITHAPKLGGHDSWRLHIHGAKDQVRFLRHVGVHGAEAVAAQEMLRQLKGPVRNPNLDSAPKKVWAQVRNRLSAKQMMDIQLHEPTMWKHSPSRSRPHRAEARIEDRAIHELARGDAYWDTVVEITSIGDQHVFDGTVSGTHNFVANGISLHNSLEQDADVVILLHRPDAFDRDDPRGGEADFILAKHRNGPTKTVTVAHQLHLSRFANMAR

[3] = reduction of Shn3 3'UTR-driven luciferase in osteoblasts – cell-based, Clone20 osteoblasts, firefly luciferase, cherry-picked, dose response (AID 624132); assay type: functional;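 note: firefly luciferase luminescence from reporter carrying the Shn3 3'UTR in osteoblasts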

O=C(Nc1ccc(N2C(=O)C3C4C=CC(C4)C3C2=O)cc1)Nc1nncs1 (configuration not stated)
EC50 [1]: > 195 µM (not active)

Cc1nc2ccccc2c2oc(C(=O)Nc3ccc(C(C)C)cc3)cc12
AC50 (INS1): 18.8 µM (active)

Fc1ccc(NC(S)=NCc2ccccc2)cc1
EC50 [1]: > 195 µM (not active)

CCNC(=O)c1ccc(-n2nc(C)cc2-c2ccccc2)cc1
AC50 (Cytochrome P450 1A2): 14.1 µM (inconclusive)

Cc1cc(C(=O)NNC(=S)NC(C)c2ccccc2)c2ccccc2n1 (configuration not stated)
AC50 (Cytochrome P450 1A2): 31.6 µM (inconclusive) | AC50 (Cytochrome P450 2C19; read-out: AC50): 22.4 µM (inconclusive)

CCCC(=O)N(CCN(C(=O)CCC)c1ccccc1)c1ccccc1
AC50 (INS1): 183 µM (active)

Cc1cc[n+](CC(=O)Nc2cc(C(F)(F)F)ccc2Cl)cc1
AC50 (Cytochrome P450 1A2): 15.8 µM (inconclusive) | AC50 (Cytochrome P450 2C19; read-out: AC50): 3.98 µM (inconclusive)

COCCn1c(C(=O)N2CCCC2)cc2c1C[C@H]1CN(C(=O)c3ccccc3)[C@@](Cc3ccc(F)cc3)(C(=O)OC)[C@@H]21
AC50 (Cytochrome P450 1A2): 31.6 µM (inconclusive) | AC50 (Cytochrome P450 2C19; read-out: AC50): 25.1 µM (inconclusive)

CCOc1ccc(N(C(C)C(=O)N/N=C(\C)c2cccc(NC(=O)c3ccccc3)c2)S(C)(=O)=O)cc1 (configuration not stated)
AC50 (Cytochrome P450 1A2): 14.1 µM (inconclusive)

Cn1c(=O)c2cn(Cc3ccc(Cl)cc3)cc2n(C)c1=O
EC50 [1]: > 195 µM (not active)

CC(=O)Nc1ccc(Cc2ccncc2)cc1
EC50 [1]: > 195 µM (not active)

CS(=O)(=O)Nc1cccc(-c2ccc3ncnc(NC4CCNCC4)c3c2)c1
AC50 (Cytochrome P450 1A2): 31.6 µM (inconclusive)

O=C(c1cccc(C(F)(F)F)c1)C1CCCN(Cc2ncc[nH]2)C1 (configuration not stated)
EC50 (Protein RecA): > 380 µM (inactive) | AC50 [2]: > 380 µM (inactive)

COCCn1c(SCC(=O)c2cc(C)n(C)c2C)nc2ccccc2c1=O
EC50 [1]: > 195 µM (not active)

OC1(c2ccc(Br)cc2)CCN(Cc2cccc(Br)c2)CC1
EC50 [1]: > 195 µM (not active)

O=[N+]([O-])c1ccc2ncccc2c1CCc1c([N+](=O)[O-])ccc2ncccc12
AC50 (Cytochrome P450 1A2): 3.16 µM (inconclusive)

O=C(OCC1CC(c2ccccc2)=NO1)c1ccc(Cl)cc1 (configuration not stated)
AC50 (Cytochrome P450 1A2): 2.82 µM (inconclusive) | AC50 (Cytochrome P450 2C19; read-out: AC50): 7.08 µM (inconclusive)

CCOc1ccc(N(C)S(=O)(=O)c2ccc(C)c(C(=O)OCC(=O)c3c[nH]c4ccccc34)c2)cc1
AC50 (INS1): 11.3 µM (active)

CCSC1=NCCN1C(=O)C(C)(C)Oc1ccc(Cl)cc1
AC50 (INS1): > 260 µM (inactive)

Cc1ccc(C)c(/N=C2\C(Cl)=C(O)OC2OC(=O)c2ccco2)c1 (configuration not stated)
EC50 (Protein RecA): 9.37 µM (active) | AC50 [2]: 20 µM (active)

N=C(N)SCCCN
AC50 (Cytochrome P450 1A2): 6.31 µM (inconclusive) | AC50 (Cytochrome P450 2C19): inconclusive

O=C(Nc1ccc(N2CCOCC2)cc1)c1cc(-c2ccncc2)nc2ccccc12
EC50 [1]: > 195 µM (not active)

Cc1ccc(C(=O)n2cnc3ccccc32)cc1C
EC50 (Protein RecA): 124 µM (active) | AC50 [2]: 37.7 µM (active)

CC1Cc2ccccc2N1C(=O)C12CCC(C)(C(=O)C1)C2(C)C (configuration not stated)
EC50 [1]: > 195 µM (not active)

CC(C)(C)Nc1nc(Cl)nc(N(C#N)CN2C(=O)c3ccccc3S2(=O)=O)n1
EC50 (Protein RecA): 18.4 µM (active) | AC50 [2]: 15.5 µM (active)

C=CCN(CC=C)Cc1c[nH]c2ccccc12
AC50 (INS1): > 260 µM (inactive)

CC(C)(C)c1cnnn1-c1ccc(/C=N/Nc2ccc([N+](=O)[O-])cc2)cc1
AC50 (INS1): 4.33 µM (active)

COc1ccc(NC(=O)c2cccnc2)cc1OCC(C)C
EC50 [1]: > 195 µM (not active)

O=C(c1c[nH]c(C(=O)C(Cl)(Cl)Cl)c1)c1ccc(F)cc1Cl
EC50 (Protein RecA): 4.49 µM (active) | AC50 [2]: 13 µM (active)

CC1(C)CCC(C)(C)c2c1ccc(O)c2Cc1c(O)ccc2c1C(C)(C)CCC2(C)C
AC50 (Cytochrome P450 1A2): 5.01 µM (inconclusive)

O=S(=O)(c1ccc(F)c(F)c1F)N1CCN(c2ncnc3sccc23)CC1
AC50 (INS1): 4.95 µM (active)

COC(=O)c1ccc(CN2CCN(CCc3ccccc3)C(CCO)C2)cc1 (configuration not stated)
EC50 [1]: > 195 µM (not active)

CCCC(c1nnnn1Cc1ccc(OC)cc1)N1CCN(c2ccccc2)CC1 (configuration not stated)
AC50 [3]: 31.9 µM (active)

COC(=O)[C@@]1(Cc2ccccc2)[C@@H]2C(=CC(=O)[C@H]2CC(=O)C(=O)N(C)C)CN1C(=O)c1ccccc1
EC50 (Protein RecA): 5.12 µM (active) | AC50 [2]: < 0.018 µM (active)

C[C@@](N)(C(=O)O)c1ccc(P(=O)(O)O)cc1
AC50 (Cytochrome P450 1A2): 39.8 µM (inconclusive)

CN1CCN(c2ccc([N+](=O)[O-])c3[nH]o[n+](=O)c23)CC1
AC50 (Cytochrome P450 1A2): 0.398 µM (inconclusive)

Cc1ccc(C2C(C#N)=C(N)Oc3n[nH]c(-c4cccs4)c32)cc1 (configuration not stated)
EC50 (Protein RecA): 1.12 µM (active) | AC50 [2]: 4.21 µM (active)

O=[N+]([O-])c1c(NCc2ccco2)ccc2nonc12
EC50 (Protein RecA): 10.1 µM (active) | AC50 [2]: 8.52 µM (active)

O=C1c2ccccc2C(=O)N1CCSC(=S)N1CCOCC1
AC50 (Cytochrome P450 1A2): 3.16 µM (inconclusive)
